Measured values: US20070099995A1, “Use of hydroxyoleic acid and related compounds as functional food additives” (priority 2003, published 2007)

What was measured:
G-proteins = assay: Binding of [35S]GTPγS to membranes of NIH 3T3 cells transfected with the rat adrenoceptor α2A/D (activity of G-proteins); type: biochemical; details: membranes of NIH 3T3 cells transfected with rat adrenoceptor α2A/D; FIG. 2; compared with daunomycin
Description: Hydroxyoleic acid and related compounds are capable of modulating the activity of G-proteins, measured by the binding of [^35S] GTPγS (FIG. 2). […] Abscissa: C=control; 2OHOA=2-hydroxyoleic; DNM=daunomycin. Ordinate: Binding of [^35S]GTPγS (% of control).

[1] = Hypotensive test: systolic arterial pressure in female Sprague-Dawley rats; type: in vivo, rat; details: for reduction of blood pressure: rats; for effect on systolic arterial pressure with respect to the control: short-term (2 to 4 hours) administration, female Sprague-Dawley rats, FIG. 5
Description: (§1) 2-Hydroxyoleic acid induced significant reductions of blood pressure in rats (FIG. 4a). These reductions occurred rapidly (at 2 hours of treatment, 19±6 mmHg, P<0.01, n=6) and after a long period (1 week, 26±7 mmHg, P<0.001, n=6). In genetically hypertensive rats, SHR strain, ingestion of 2-hydroxyoleic acid (600 mg/kg every 12 hours) produced very marked reductions in blood pressure. These reductions, of some 70 mmHg, induced normalization of systolic pressure in hypertensive SHR rats.

[2] = Systolic arterial pressure in genetically hypertensive rats, SHR strain; type: in vivo, rat
Description: as §1
(§2) In SHRs which were not given 2-hydroxyoleic acid (SHR empty squares), no reduction in arterial pressure was observed. […] The reduction induced by hydroxyoleic acid on arterial pressure meant that there was no significant difference between the values registered at the end of the diet period for the hypertensive and normotensive rats.

[3] = Systolic arterial pressure in normotensive WKY rats; type: in vivo, rat; details: male WKY (normotensive) rats, 600 mg/kg every 12 hours for 7 days, FIG. 6
Description: as §1, §2

Blood pressure in humans = type: in vivo, human; details: 90 mg/kg per day for 8 days, FIG. 4b
Description: The days prior to treatment are shown with negative values. *P<0.05, **P<0.01.

[4] = Body weight of normotensive (WKY) and hypertensive (SHR) rats; type: in vivo, rat; details: 600 mg/kg every 12 hours, 8 days
Description: In another series of experiments, the diet of normotensive rats (WKY) and hypertensive rats (SHR) was supplemented with hydroxyoleic acid (600 mg/kg, every 12 hours) and it was confirmed that the weight of the animals decreased by between 30 and 40 grams (15-20% of the body weight) in an 8-day diet period (FIG. 8).

[5] = Blood pressure and heart rate after ingestion (species not stated); type: in vivo; details: chronic treatments lasting a week
Description: The hypotensive effect produced by ingestion of 2-hydroxyoleic acid and its analogs results in a reduction in blood pressure within 2 hours of ingestion, and this is maintained for days and weeks while ingestion of this compound is maintained. Aminoleic acid, for example, reduces blood pressure by 15 mmHg in chronic treatments lasting a week.

Which “Binding of [35S]GTPγS (function of the G-proteins)” value (G-proteins) does the source give for `CCCCCCCC/C=C\CCCCCCC(O)C(=O)O` (stereo not drawn) [2-hydroxyoleic acid, cis-2-hydroxy-9-octadecenoic acid] here?
The value was “decrease in function of the G-proteins even greater than daunomycin”.

And the “reduction of blood pressure” value ([1]; 1 week (chronic, 90 mg/kg per day for 7 days, FIG. 4a), n=6, P<0.001)?
Its value is 26±7 mmHg.

And the “reduction of blood pressure” value ([1]; at 2 hours of treatment (acute, 30 mg/kg, FIG. 4a), n=6, P<0.01)?
The value was 19±6 mmHg.

What about the “effect on systolic arterial pressure with respect to the control” value (shortened to “effect … to the control”) [1] of the same compound?
The value was “significant decreases”.

And the “reduction in blood pressure (systolic)” value ([2]; SHR rats, 600 mg/kg every 12 hours)?
Its value is ~70 mmHg.

What about the “effect on systolic arterial pressure” value ([2]; male SHR rats, 600 mg/kg every 12 hours for 7 days, FIG. 6) of the same compound?
Its value is “significant, large reductions”.

And the “effect on arterial pressure” value [3]?
The value was “neither the 2-hydroxyoleic acid (black circles) nor the vehicle (empty circles) produced statistically significant changes”.

And the “effect on blood pressure” value (Blood pressure in humans)?
The value was “significant, large decreases”.

And the “reduction in body weight” value [4]?
The value was 15-20%.

With `CCCCCCCC/C=C\CCCCCCC(C)C(=O)O` (stereo not drawn) [2-methyl oleic acid] as the compound, how does the “effect … to the control” value [1] read?
Its value is “significant decreases”.

For `CCCCCC/C=C\CCCCCCCCCC(=O)O` [cis-vaccenic acid], which “effect … to the control” value [1] is on record?
The value was “significant decreases”.

With `CCCCCCCC/C=C\CCCCCCCCCCCCCC(=O)O` [nervonic acid] as the compound, how does the “effect … to the control” value [1] read?
Its value is “significant decreases”.

For `CCCCCCCC/C=C\CCCCCCCC(=O)O` [oleic acid], which “effect … to the control” value [1] is on record?
Its value is “significant decreases”.

For `CCCCCC/C=C\CCCCCCCC(=O)O` [palmitoleic acid], which “effect … to the control” value [1] is on record?
Its value is “significant decreases”.

Which “reduction of blood pressure” value [5] does the source give for Aminoleic acid here?
The value was 15 mmHg.
